Numbers after ± are expanded uncertainties.

The nature of the series: refractive index (Na D-line) (dimensionless). The following applies: 293.1 K; 101.33 kPa; Liquid; Standard Abbe refractometry.

For the molecule `CN1CCCC1=O` [N-methylpyrrolidone], the refractive index was 1.4686 ± 0.0012.

Source of the values: the NIST ThermoML archive (doi:10.1021/je049706p).
